Assays:
LAX3 = target: T1, LAX3 (Arabidopsis thaliana, UniProt Q9CA25); assay: competition with 3H-IAA uptake into Xenopus oocytes; format: cell-based; settings: 100 nM 3H-IAA; pH 6, room temperature, 8 min; competitive
T1 construct: full-length wild type, cRNA injected into Xenopus laevis oocytes
T1 sequence (Q9CA25 1-470): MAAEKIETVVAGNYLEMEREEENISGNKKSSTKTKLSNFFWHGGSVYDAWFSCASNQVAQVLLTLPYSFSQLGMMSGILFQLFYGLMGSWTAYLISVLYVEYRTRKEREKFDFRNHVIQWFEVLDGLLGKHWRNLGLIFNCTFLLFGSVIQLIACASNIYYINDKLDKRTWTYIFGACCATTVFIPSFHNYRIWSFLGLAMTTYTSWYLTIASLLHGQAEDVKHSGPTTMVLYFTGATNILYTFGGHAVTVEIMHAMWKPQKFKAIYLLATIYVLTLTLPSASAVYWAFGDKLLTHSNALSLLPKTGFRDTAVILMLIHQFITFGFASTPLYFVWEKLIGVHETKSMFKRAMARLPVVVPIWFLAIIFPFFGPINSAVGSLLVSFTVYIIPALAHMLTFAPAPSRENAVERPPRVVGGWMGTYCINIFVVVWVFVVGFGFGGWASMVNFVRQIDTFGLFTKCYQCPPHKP

LAX3 (residues 44–470) [1] = target: T2, LAX3 (residues 44–470) (Arabidopsis thaliana, UniProt Q9CA25); assay: cryo-EM structure, […] Å; settings: pH 7.5; 5 mM 2-NOA; LMNG; central binding pocket, fully occluded
T2 construct: N-terminally truncated, residues 44-470; C-terminal TEV site and His10 tag, cut with TEV; expressed in Saccharomyces cerevisiae DSY-5; LMNG/CHS; 47 kDa
T2 sequence (Q9CA25 44-470): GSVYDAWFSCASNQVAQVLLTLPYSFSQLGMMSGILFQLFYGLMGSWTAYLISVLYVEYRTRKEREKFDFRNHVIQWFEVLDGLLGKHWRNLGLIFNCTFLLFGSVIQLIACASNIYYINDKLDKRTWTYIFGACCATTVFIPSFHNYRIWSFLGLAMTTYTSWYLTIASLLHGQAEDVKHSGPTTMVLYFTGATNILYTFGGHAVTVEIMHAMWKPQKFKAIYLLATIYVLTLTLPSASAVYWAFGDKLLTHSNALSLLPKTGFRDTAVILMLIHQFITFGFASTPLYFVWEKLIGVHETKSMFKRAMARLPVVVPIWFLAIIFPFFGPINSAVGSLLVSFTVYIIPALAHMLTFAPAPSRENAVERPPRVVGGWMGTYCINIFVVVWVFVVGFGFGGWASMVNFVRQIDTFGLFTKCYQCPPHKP

LAX3 (residues 44–470) [2] = target: T2, LAX3 (residues 44–470); assay: cryo-EM structure, […] Å; settings: pH 7.5; 5 mM IAA; LMNG; central binding pocket, inward semi-occluded

Row | SMILES | inhibition of IAA uptake at 10 μM (LAX3) | cryo-EM structure, 2.88 Å (LAX3 (residues 44–470) [1]) | cryo-EM structure, 3.21 Å (LAX3 (residues 44–470) [2])
1 | O=C(O)COc1ccc2ccccc2c1 [2-NOA] | these data demonstrate a competitive effect of all three compounds | 2-NOA bound LAX3 fully occluded: PDB 9H63 and EMD-51896 | 
2 | O=C(O)Cc1c[nH]c2ccccc12 [IAA] |  |  | IAA-bound LAX3 inward semi-occluded: PDB 9H61 and EMD-51894
3 | O=C(O)COc1ccc(Cl)cc1Cl [2,4-D] | these data demonstrate a competitive effect of all three compounds |  | 
4 | O=C(O)COc1cccc2ccccc12 [1-NOA] | these data demonstrate a competitive effect of all three compounds |  | 

Reference: PMC12364708, “Structures and mechanism of the AUX/LAX transporters involved in auxin import” (Nature Plants, 2025)
